Experimental data published in US20250163064A1, “QUINAZOLINE COMPOUNDS AND USES THEREOF AS INHIBITORS OF MUTANT KRAS PROTEINS” (AMGEN INC., priority 2022, published 2025).

How the values were obtained:
[1] = molecular target: His-tagged KRAS G12D protein (Homo sapiens (Human), UniProt P01116, G12D); assay: KRAS G12D TR-FRET Assay; assay type: binding; conditions: biotinylated KRPep-2d, 10 μM GDP
How it was run: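 His-KRAS G12D (20 nM working solution) preincubated with compound 30 min at rt in HEPES pH 7.4 buffer with 10 μM GDP, then biotinylated KRPep-2d added for 1 h. Eu-anti-His/streptavidin-d2 TR-FRET 665/615 ratio; IC50 from 4-parameter logistic fit.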

[2] = tested on: Phosphorylation of ERK1/2 in AsPC-1 cells; assay: Phospho-ERK1/2 MSD Assay; assay type: cell-based; conditions: Homo sapiens, ASPC1, 2 h, read-out: 2 h p-ERK (AsPC-1 cells), IC50 (μM), AsPC-1 cells, 2 h compound treatment
How it was run: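 AsPC-1 cells in 10% FBS RPMI 1640 were treated with a compound dose titration for 2 h at 37° C, then lysed in RIPA buffer with protease and phosphatase inhibitors. Phospho-ERK1/2 was measured by MSD whole-cell lysate immunoassay, and IC50 was derived by 4-parameter logistic fit.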

[3] = molecular target: GDP-bound KRAS protein (aa 1-169), G12D and C118A; SOS-mediated nucleotide exchange (Homo sapiens (Human), UniProt P01116, C118A/G12D); assay: KRAS G12D Coupled Nucleotide Exchange Assay; assay type: biochemical; conditions: 2 h compound pre-incubation, GTP, cRAF AlphaScreen
How it was run: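 GDP-loaded KRAS (aa 1-169, G12D/C118A, N-His) preincubated 2 h with titrated compound in pH 7.4 HEPES/MgCl2/Triton buffer. SOS (aa 564-1049) plus GTP then added for 30 min. AlphaScreen readout; IC50 from 4-parameter logistic fit.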

GDP-bound KRAS protein (aa 1-169), G12D and C118A; SOS-mediated nucleotide exchange, sequence (P01116 other isoform, or with tags, fused parts or gaps G12D/C118A): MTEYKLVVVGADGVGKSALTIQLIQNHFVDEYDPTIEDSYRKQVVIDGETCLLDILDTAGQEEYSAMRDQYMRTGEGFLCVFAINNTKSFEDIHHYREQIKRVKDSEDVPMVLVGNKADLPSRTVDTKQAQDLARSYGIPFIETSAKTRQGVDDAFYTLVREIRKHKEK
His-tagged KRAS G12D protein, sequence (P01116-2 other isoform, or with tags, fused parts or gaps G12D): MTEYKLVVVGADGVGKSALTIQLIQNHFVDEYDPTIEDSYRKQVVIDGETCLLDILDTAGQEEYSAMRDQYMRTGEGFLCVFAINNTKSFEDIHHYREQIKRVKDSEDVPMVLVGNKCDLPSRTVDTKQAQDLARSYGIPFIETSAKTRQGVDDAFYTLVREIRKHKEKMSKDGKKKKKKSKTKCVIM

For N#Cc1c(N)sc2c(F)ccc(-c3c(Cl)cc4c(C5=CCCOC5)nc(OC[C@@]56CCCN5C[C@H](F)C6)nc4c3F)c12 [Example 70, 2-Amino-4-(6-chloro-4-(5,6-dihydro-2H-pyran-3-yl)-8-fluoro-2-(((2R,7aS)-2-fluorotetrahydro-1H-pyrrolizin-7a(5H)-yl)methoxy)quinazolin-7-yl)-7-fluorobenzo[b]thiophene-3-carbonitrile bis(2,2,2-trifluoroacetate)], the IC50 [1] was 34 nM, the IC50 [2] was 0.845 µM and the IC50 [3] was 19 nM.
N#Cc1c(N)sc2c(F)ccc(-c3c(Cl)cc4c(C5CC5)nc(OC[C@@]56CCCN5C[C@H](F)C6)nc4c3F)c12 [Example 71, 2-Amino-4-(6-chloro-4-cyclopropyl-8-fluoro-2-(((2R,7aS)-2-fluorotetrahydro-1H-pyrrolizin-7a(5H)-yl)methoxy)quinazolin-7-yl)-7-fluorobenzo[b]thiophene-3-carbonitrile bis(2,2,2-trifluoroacetate)] gave an IC50 [1] of 11 nM, an IC50 [2] of 0.185 µM and an IC50 [3] of 5 nM.
